The values that follow come from publication PMC9291521 (Frontiers in Chemistry, 2022).

Each structure is given as a SMILES string. Where two headings read alike, the source gives them in different places. Residues, ends and D or L forms follow the SMILES beside them. *: point of attachment. Cbz = O=C(OCc1ccccc1)* Some results are limits rather than exact numbers.

The target in assay [1] is cruzain. The following applies: pH 7.5; ref Li et al., 2021; cited from earlier work.
Assay [2] deals with SARS-CoV-2-infected A549/ACE2 cells. Put plainly: microbe, parasite or virus in culture. In kind it is cell-based.
For assay [3], the target named is T1, human cathepsin L (Homo sapiens, UniProt P07711). The following applies: for fold more potent for human cathepsin L than for cruzain (Ki*): hCatL vs cruzain; for Ki: read-out: Ki* hCatL, after 30-min incubation, pH 5.5, fit of vs/v0 to Eq. 5.
T1 sequence (P07711 114-333): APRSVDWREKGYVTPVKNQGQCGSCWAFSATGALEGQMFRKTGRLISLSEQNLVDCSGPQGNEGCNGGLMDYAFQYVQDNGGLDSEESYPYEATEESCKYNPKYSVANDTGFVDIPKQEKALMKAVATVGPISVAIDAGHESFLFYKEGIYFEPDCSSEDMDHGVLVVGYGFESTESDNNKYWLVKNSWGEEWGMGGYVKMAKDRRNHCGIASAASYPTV
Procedure: (§1) Recombinant proteases were obtained from the following vendors: recombinant human cathepsin L (Millipore Sigma, Athens Research and Technology, Inc.), and human liver cathepsin B (Millipore Sigma), which were used without further purification. […] These samples were then diluted into the same buffer to concentrations of ∼100 nM, and these dilutions were stored at 4°C and used daily until depletion.
(§2) For assays of cathepsin L and B, inhibitors were evaluated in 0.25-ml reaction mixtures containing a buffer of sodium acetate (pH 5.5), 1 mM CHAPS, 1 mM Na2EDTA, and 5 mM DTT at 25°C. The fluorogenic substrate Cbz-Phe-Arg-7-amino-4-methyl-coumarin (Z-FR-AMC) was dissolved in 100% DMSO, as were all inhibitors and aliquots of both substrates, and inhibitors were added to the reaction mixtures with final concentrations of DMSO of 10% (v/v). […] Formation of the fluorescent product AMC was monitored over 30–60-min time courses for reaction mixtures in 96-well black microplates (Greiner). Rates of peptidolysis of the dipeptide-AMC substrate(s) were measured on either a SpectraMax M2 (Molecular Devices) or a Synergy Mx (Biotek, Wisnooki, VT) microplate reader which measured the formation of fluorescence using an excitation wavelength of λex = 360 nm, with detection of emission at λem = 460 nm at ≥8-s intervals. Control samples excluded substrate. The measured relative fluorescence units (RFUs) of generated AMC were converted to reaction rates of μM/s by use of a standard curve of known AMC concentrations obtained for both plate readers.
In assay [4] the test system is SARS-CoV-2-infected Vero E6 cells. Briefly: Micro-neutralization assay, virus-induced cytopathic effect in Vero E6 cells. In kind it is cell-based. (In general: Protection from cytopathic effect is a common read-out in antiviral testing.)
Assay [5] addresses T1, human cathepsin L. Briefly: biochemical.
Procedure: as §1, §2
Assay [6] addresses SARS-CoV-2 3CL protease (Severe acute respiratory syndrome coronavirus 2, UniProt P0DTD1). Put plainly: Kinetic assay of SARS-CoV-2 3CL-PR inhibition (FRET substrate). To be noted: after 30-min incubation; pH 7.2; read-out: Ki* 3CLpro. It is filed as biochemical.
Assay [7] addresses T2, human cathepsin B (Homo sapiens, UniProt P07858).
T2 construct: purchased Millipore Sigma; host or cells: human liver (so in the source)
Briefly: Kinetic assay of human cathepsin B inhibition (Z-FR-AMC peptidolysis). It is filed as biochemical. To be noted: after 30-min incubation; pH 5.5; read-out: Ki* hCatB.

In assay [8] the test system is SARS-CoV-2-infected Vero E6 cells. The following applies: cited from earlier work.
The subject of assay [9] is SARS-CoV-2-infected A549/ACE2 cells. To be noted: read-out: Anti-CoV-2 EC50 A549/ACE2 Cells, cited from earlier work.
The mark [10] stands for this setting: Severe acute respiratory syndrome coronavirus 2, A549-ACE2, 96 h, read-out: Anti-CoV-2 EC50 A549/ACE2 Cells.
Where [11] appears, read: Severe acute respiratory syndrome coronavirus 2, Vero C1008, 72 h, prevention of CPE, 3 days, read-out: Anti-CoV-2 EC50 Vero E6 Cells.
The mark [12] stands for this setting: Ki (initial EI complex), fit of vi/v0 vs. [I] to Eq. 4.
The mark [13] stands for this setting: Ki* hCatL, after 30-min incubation, pH 5.5, fit of vs/v0 to Eq. 5.
[14] abbreviates: previously reported, ref Li et al., 2021.
The mark [15] stands for this setting: Severe acute respiratory syndrome coronavirus 2, A549-ACE2, 96 h, prevention of CPE, 4 days, read-out: Anti-CoV-2 EC50 A549/ACE2 Cells.
The mark [16] stands for this setting: Severe acute respiratory syndrome coronavirus 2, A549-ACE2, read-out: EC50 A549/ACE2 cells.

One may read the Ki as a measure of affinity in units of concentration, obtained from inhibition or displacement. For `O=C[C@H](Cc1ccccc1)NC(=O)[C@H](Cc1ccccc1)NC(=O)OCc1ccccc1` [Compound 1, Cbz-Phe-Phe-CHO] (Cbz-Phe-Phe-aldehyde), the inhibition constant Ki was 0.44 ± 0.02 nM in [1], 0.18 ± 0.22 nM in [5] (setting [12]), 0.14 ± 0.01 nM in assay [5] (setting [13]) and more than 10 µM in assay [6]. Also, the EC50 is more than 20000 nM in assay [2] (setting [10]); 0.47 µM in [4] (setting [11]); 7.5 µM in assay [4] (Severe acute respiratory syndrome coronavirus 2, Vero C1008, repeat of the experiment with a different sample of 1, read-out: Anti-CoV-2 EC50 Vero E6 Cells). The “fold more potent for human cathepsin L than for cruzain (Ki*)” value in assay [3] was determined as 3 fold.
Turning to `O=C(N[C@@H](Cc1ccccc1)C(=O)N[C@H]1Cc2ccccc2OC1O)OCc1ccccc1` (stereo partly drawn) [Compound 2, Cbz-Phe-o-Tyr-CHO], the inhibition constant Ki was 49 ± 2 nM in assay [1]; 54 ± 6 nM in assay [5] (setting [12]); 12.6 ± 0.4 nM in [5] (setting [13]); approximately 200 nM in [5] (k4Ki/k3 ∼ Ki*, calculated from the Eq. 3 parameters); 4500 nM in assay [7]; more than 10 µM in [6]. For the same compound, the EC50 is more than 20000 nM in assay [2] (setting [10]) and 10 ± 5 µM in assay [4] (setting [11]). For the same compound, the “fold faster k4 than aldehyde 1” value in [3] (conversion of EI* to EI) was approximately 5 fold. Moreover, the “fold more potent for human cathepsin L than for cruzain (Ki*)” value in assay [3] is given as 3.9 fold. The “k4 (reversion of EI* to EI)” value in [3] (intercept of kobs vs. [I], fit to Eq. 3) was 0.0016 ± 0.0002 s⁻¹. Also, the “fold less potent inhibitor of cathepsin L than 1 (Ki*)” value in [3] (relative to aldehyde 1) is recorded as 100 fold.
As for `COc1ccc2c(c1)C[C@H](NC(=O)[C@H](Cc1ccccc1)NC(=O)OCc1ccccc1)C(O)O2` (stereo partly drawn) [Compound 3], the Ki in [1] is 350 ± 30 nM; in assay [3], 17 ± 0.9 nM; in [7], 5500 nM; in assay [6], more than 10 µM. In assay [3] (cathepsin L), the “fold increase in Ki* compared to 2” value is 1.4 fold.
Consider `Cc1ccc2c(c1)C[C@H](NC(=O)[C@H](Cc1ccccc1)NC(=O)OCc1ccccc1)C(O)O2` (stereo partly drawn) [Compound 4], for which the Ki in [1] is 103 ± 5 nM; in assay [3], 26 ± 0.9 nM; in assay [7] it was 6100 nM; in assay [6], more than 10 µM. The “fold increase in Ki* compared to 2” value in assay [3] (cathepsin L) came out at 2 fold.
Consider `O=C(N[C@@H](Cc1ccccc1)C(=O)N[C@H]1Cc2cc(Cl)ccc2OC1O)OCc1ccccc1` (stereo partly drawn) [Compound 5], for which the Ki is 70 ± 10 nM in assay [1], 12.1 ± 0.3 nM in assay [3], 1400 ± 100 nM in assay [7] and more than 10 µM in assay [6].
Consider `O=C(N[C@@H](Cc1ccccc1)C(=O)N[C@H]1Cc2cc(F)ccc2OC1O)OCc1ccccc1` (stereo partly drawn) [Compound 6], for which the inhibition constant Ki is 48 ± 2 nM in assay [1], 10.3 ± 0.5 nM in assay [3], 2300 nM in assay [7] and more than 10 µM in [6]. The EC50 in assay [4] (setting [11]) was 4 µM.
Regarding `COC(=O)c1ccc2c(c1)C[C@H](NC(=O)[C@H](Cc1ccccc1)NC(=O)OCc1ccccc1)C(O)O2` (stereo partly drawn) [Compound 7], the Ki in assay [1] was 18 ± 0.5 nM; in [3], 4.8 ± 0.2 nM; in [7], 670 ± 30 nM; in assay [6], more than 10 µM. The “fold improved potency over 2” value in assay [3] (cathepsin L) came out at 2.6 fold. In addition, the EC50 in assay [4] (setting [11]) was determined as 2.5 µM.
Regarding `CN1CCN(C(=O)NC(Cc2ccccc2)C(=O)NC2Cc3ccccc3OC2O)CC1` (stereo not drawn) [Compound 8, NMe-Pip-Phe-o-Tyr-CHO], the Ki in assay [1] is 47 ± 2 nM; in [5] (setting [12]) it was 22 ± 1 nM; in assay [5] (setting [13]), 9 ± 0.4 nM; in [7], 1270 ± 70 nM; in assay [6] it was more than 10 µM. Further, the “anti-viral effect in infected A549/ACE2 cells” value in assay [2] (in words) is given as “no anti-viral effect”. The EC50 in assay [4] (setting [11]) amounted to 9 ± 2 µM.
Take `CC(C)[C@H](NC(=O)OCc1ccccc1)C(=O)N[C@@H](CC1CCCCC1)C(=O)N[C@H]1Cc2cccnc2OC1O` (stereo partly drawn) [Compound 9]: in assay [8] (setting [14]), the “effect in SARS-CoV-2-infected Vero E6 cells” value is “no effect”. For the same compound, the Ki stood at 22 ± 4 nM in [5] (setting [13]) and 0.009 ± 0.002 µM in assay [6]. Moreover, the EC50 in assay [9] (setting [14]) was 3750 nM.
As for `CC(=O)OC1Oc2ccccc2CC1NC(=O)C(Cc1ccccc1)NC(=O)N1CCN(C)CC1` (stereo not drawn) [Compound 10], the EC50 in [2] (setting [15]) is 310 nM; in assay [2] (setting [16]), 312 nM; in [4] (setting [11]), 2.5 µM.
In the same order, the values of `CCC(=O)OC1Oc2ccccc2CC1NC(=O)C(Cc1ccccc1)NC(=O)N1CCN(C)CC1` (stereo not drawn) [Compound 11] are 620 nM, 625 nM and 2.5 µM.
Take `CC(C)C(=O)OC1Oc2ccccc2CC1NC(=O)C(Cc1ccccc1)NC(=O)N1CCN(C)CC1` (stereo not drawn) [Compound 12]: the EC50 in [2] (setting [15]) was 310 nM; in assay [2] (setting [16]), 156 nM; in [4] (setting [11]) it was 3.75 µM; in [4] (prevention of CPE, 3 days, read-out: Anti-CoV-2 EC50 Vero E6 Cells), 4 µM.
For the compound `CN1CCN(C(=O)N[C@@H](Cc2ccccc2)C(=O)N[C@H](/C=C/S(=O)(=O)c2ccccc2)CCc2ccccc2)CC1` [Compound K777], the EC50 was 625 nM in [8] (previously found, ref Mellott et al., 2021, read-out: EC50 Vero E6 cells); 620 nM in [8] (ref Mellott et al. (2021), read-out: Anti-CoV-2 EC50 Vero E6 Cells); 0.15 µM in [4] (Severe acute respiratory syndrome coronavirus 2, Vero C1008, 72 h, read-out: Anti-CoV-2 EC50 Vero E6 Cells); 0.156 µM in [4] (Severe acute respiratory syndrome coronavirus 2, Vero C1008, read-out: EC50 Vero E6 cells); less than 78 nM in [9] (ref Mellott et al. (2021)).
As to `CC(C)(C)[C@H](NC(=O)C(F)(F)F)C(=O)N1C[C@H]2[C@@H]([C@H]1C(=O)N[C@H](C#N)C[C@@H]1CCNC1=O)C2(C)C` [PF-07321332, reference compound], the EC50 in assay [2] (setting [10]) is 470 nM; in assay [8] (ref Owen et al. (2021), read-out: Anti-CoV-2 EC50 Vero E6 Cells), 74 nM; in assay [4] (setting [11]), more than 20 µM; in assay [9] (ref Owen et al. (2021)), 77 nM.
